Test results from patent US9340590B2 (priority 2011, dated 2016).
Positions of bridges follow the written chain, without caps; N, C: chain ends. Non-standard residues stand in square brackets, D forms with d. Residues, ends and D or L forms follow the SMILES beside them. 1Nal = N[C@@H](Cc1cccc2ccccc12)C(=O)O

Tests used:
Experiment in all cases: cell-based
hNav1.7 = hNav1.7 (Homo sapiens, UniProt Q15858); assay type: cell-based; details: IonWorks Quattro, use-dependent block, hNav1.7; read-out: IWQ Use Nav1.7
hNav1.7, sequence (Q15858 whole entry, looked up): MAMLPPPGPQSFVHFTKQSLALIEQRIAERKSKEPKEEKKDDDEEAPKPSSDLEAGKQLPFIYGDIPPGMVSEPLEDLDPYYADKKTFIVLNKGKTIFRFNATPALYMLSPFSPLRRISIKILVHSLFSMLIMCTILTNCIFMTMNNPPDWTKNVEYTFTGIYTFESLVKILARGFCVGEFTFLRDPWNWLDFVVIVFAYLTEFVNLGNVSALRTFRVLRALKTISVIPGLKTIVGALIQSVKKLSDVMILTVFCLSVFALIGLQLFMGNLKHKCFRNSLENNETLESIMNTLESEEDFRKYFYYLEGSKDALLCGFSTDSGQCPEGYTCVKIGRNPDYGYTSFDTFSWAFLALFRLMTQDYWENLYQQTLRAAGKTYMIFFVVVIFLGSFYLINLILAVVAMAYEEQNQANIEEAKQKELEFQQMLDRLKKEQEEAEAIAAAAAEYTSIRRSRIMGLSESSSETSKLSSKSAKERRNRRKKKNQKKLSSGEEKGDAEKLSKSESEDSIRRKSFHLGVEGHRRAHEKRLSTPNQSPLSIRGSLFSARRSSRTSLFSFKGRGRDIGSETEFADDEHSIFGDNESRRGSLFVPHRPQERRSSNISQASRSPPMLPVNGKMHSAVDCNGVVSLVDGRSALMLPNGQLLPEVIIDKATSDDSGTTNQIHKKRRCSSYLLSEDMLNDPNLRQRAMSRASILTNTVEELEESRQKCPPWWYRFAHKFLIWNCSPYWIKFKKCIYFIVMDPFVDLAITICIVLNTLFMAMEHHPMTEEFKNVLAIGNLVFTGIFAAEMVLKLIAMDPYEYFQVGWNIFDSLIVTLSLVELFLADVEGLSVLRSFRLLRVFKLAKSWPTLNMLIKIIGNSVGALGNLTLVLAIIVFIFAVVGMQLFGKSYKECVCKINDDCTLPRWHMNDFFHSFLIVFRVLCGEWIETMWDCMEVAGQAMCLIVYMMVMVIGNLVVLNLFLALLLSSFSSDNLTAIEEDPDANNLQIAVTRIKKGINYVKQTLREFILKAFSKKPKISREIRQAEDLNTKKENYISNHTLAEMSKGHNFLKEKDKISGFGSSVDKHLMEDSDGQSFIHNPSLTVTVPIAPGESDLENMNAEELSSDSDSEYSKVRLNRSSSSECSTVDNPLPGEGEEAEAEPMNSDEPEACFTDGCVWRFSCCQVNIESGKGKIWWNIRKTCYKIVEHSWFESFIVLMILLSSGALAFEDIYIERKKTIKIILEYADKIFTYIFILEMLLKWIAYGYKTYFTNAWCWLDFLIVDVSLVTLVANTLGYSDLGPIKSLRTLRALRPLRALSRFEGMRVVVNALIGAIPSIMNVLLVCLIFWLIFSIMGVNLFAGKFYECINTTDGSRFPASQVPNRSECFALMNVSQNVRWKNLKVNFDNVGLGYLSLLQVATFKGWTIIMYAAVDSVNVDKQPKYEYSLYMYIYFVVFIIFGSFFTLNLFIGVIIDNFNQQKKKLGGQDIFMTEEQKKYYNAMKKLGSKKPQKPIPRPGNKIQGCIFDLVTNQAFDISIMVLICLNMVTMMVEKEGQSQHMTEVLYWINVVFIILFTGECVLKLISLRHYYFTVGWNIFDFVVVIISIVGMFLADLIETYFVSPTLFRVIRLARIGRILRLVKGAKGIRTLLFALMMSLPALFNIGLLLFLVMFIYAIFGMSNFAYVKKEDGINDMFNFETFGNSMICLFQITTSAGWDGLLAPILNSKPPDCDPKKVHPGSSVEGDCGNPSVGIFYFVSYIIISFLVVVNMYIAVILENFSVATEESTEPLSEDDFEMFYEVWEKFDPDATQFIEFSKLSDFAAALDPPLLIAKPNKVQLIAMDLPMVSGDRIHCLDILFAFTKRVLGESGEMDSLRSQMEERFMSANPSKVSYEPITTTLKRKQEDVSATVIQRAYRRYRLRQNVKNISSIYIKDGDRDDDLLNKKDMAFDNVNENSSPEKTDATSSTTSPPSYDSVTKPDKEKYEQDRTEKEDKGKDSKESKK

hNav1.5 = hNav1.5 (Homo sapiens, UniProt Q14524); details: IonWorks Quattro, use-dependent block, hNav1.5; read-out: IWQ Use Nav1.5
hNav1.5, sequence (Q14524 whole entry, looked up): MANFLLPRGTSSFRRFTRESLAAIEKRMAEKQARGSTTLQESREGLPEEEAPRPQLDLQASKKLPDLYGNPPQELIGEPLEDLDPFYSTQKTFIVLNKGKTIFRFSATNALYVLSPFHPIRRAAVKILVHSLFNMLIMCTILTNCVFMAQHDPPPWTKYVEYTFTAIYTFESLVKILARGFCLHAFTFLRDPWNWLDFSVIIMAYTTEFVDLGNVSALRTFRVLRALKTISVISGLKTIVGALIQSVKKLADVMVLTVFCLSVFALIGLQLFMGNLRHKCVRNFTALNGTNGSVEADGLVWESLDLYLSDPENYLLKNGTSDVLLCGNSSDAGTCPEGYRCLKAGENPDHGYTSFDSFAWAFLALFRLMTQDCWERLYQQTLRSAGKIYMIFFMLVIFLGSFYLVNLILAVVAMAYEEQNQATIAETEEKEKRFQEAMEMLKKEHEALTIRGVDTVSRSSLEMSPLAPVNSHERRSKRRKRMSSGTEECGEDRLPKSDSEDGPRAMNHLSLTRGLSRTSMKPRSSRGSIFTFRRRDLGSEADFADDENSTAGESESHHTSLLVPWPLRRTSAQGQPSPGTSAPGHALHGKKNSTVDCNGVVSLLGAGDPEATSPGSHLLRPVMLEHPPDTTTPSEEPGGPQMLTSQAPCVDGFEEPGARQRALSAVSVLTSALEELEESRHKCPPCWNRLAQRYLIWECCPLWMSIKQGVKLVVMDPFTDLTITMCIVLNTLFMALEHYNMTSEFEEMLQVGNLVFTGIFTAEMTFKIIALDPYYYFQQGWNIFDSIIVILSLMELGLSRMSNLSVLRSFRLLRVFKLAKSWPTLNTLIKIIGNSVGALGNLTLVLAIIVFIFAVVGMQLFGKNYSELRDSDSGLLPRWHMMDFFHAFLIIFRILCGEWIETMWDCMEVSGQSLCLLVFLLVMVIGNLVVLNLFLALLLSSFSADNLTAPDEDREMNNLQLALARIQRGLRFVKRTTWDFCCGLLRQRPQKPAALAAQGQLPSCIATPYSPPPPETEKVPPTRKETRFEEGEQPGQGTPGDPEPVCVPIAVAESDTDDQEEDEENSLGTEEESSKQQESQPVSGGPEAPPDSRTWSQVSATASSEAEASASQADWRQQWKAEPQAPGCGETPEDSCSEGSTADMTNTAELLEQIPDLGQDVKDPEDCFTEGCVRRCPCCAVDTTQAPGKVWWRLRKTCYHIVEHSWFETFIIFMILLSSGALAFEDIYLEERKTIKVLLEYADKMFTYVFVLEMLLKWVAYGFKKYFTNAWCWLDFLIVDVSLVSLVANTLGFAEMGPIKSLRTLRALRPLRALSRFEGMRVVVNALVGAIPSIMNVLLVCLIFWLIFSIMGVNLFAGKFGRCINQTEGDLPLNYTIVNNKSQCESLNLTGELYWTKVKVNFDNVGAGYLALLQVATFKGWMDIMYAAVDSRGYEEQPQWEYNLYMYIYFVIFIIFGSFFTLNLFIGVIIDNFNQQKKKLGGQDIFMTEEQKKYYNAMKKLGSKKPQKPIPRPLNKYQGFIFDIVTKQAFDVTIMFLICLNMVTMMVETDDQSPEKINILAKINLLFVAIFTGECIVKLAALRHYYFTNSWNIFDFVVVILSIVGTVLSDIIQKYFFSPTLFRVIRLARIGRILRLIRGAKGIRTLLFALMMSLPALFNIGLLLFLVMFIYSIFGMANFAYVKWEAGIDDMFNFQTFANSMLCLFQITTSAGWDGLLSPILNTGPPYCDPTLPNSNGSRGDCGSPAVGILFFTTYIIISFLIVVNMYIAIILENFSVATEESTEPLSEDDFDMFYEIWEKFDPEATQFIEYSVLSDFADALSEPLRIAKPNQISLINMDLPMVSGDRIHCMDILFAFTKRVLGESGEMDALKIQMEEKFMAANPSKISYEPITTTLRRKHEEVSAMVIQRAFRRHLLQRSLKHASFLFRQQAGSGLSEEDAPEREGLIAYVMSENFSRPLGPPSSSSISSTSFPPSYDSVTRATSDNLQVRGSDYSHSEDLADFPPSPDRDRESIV

hNav1.3 = hNav1.3 (Homo sapiens, UniProt Q9NY46); details: IonWorks Quattro, use-dependent block, hNav1.3; read-out: IWQ Use Nav1.3

Row | SMILES | IC50 (hNav1.7) [nM] | IC50 (hNav1.5) [nM] | IC50 (hNav1.3) [nM]
1 | CC[C@H](C)[C@@H]1NC(=O)[C@@H]2CSSC[C@@H]3NC(=O)[C@H](C(C)C)NC(=O)[C@H](CC(C)C)NC(=O)[C@H](CC(N)=O)NC(=O)[C@@H]4CCCN4C(=O)[C@H](CCCNC(=N)N)NC(=O)[C@H](CSSC[C@H](NC(=O)[C@@H](N)CC(=O)O)C(=O)N[C@@H](CC(C)C)C(=O)N[C@@H](Cc4c[nH]c5ccccc45)C(=O)N[C@@H](C)C(=O)N[C@@H](CCSC)C(=O)N[C@@H](CCCNC(=N)N)C(=O)N[C@@H](CCCCN)C(=O)N2)NC(=O)[C@H](CSSC[C@@H](C(=O)N[C@@H](CCCCN)C(=O)N[C@@H](Cc2ccc(O)cc2)C(=O)N[C@H](C(=O)N[C@@H](Cc2ccccc2)C(N)=O)C(C)C)NC(=O)[C@H](Cc2c[nH]c4ccccc24)NC(=O)[C@H](CCCCN)NC(=O)[C@H](Cc2c[nH]cn2)NC(=O)[C@H]([C@@H](C)O)NC(=O)[C@H](CCCNC(=N)N)NC(=O)[C@H](CO)NC3=O)NC(=O)[C@H](CCCCN)NC(=O)[C@H](CC(=O)O)NC(=O)[C@H](CC(N)=O)NC(=O)[C@H](CC(=O)O)NC(=O)[C@@H]2CCCN2C1=O [compound 424] (H-DCLWAMRKCIPDNDKCCRPNLVCSRTHKWCKYVF-NH2; disulfide 2-17, 9-23, 16-30) | 490 | > 5000 | 1170
2 | CC[C@H](C)[C@@H]1NC(=O)[C@@H]2CSSC[C@@H]3NC(=O)[C@H](C(C)C)NC(=O)[C@H](CC(C)C)NC(=O)[C@H](CC(N)=O)NC(=O)[C@@H]4CCCN4C(=O)[C@H](CCCNC(=N)N)NC(=O)[C@H](CSSC[C@H](NC(=O)[C@@H](N)CC(=O)O)C(=O)N[C@@H](CC(C)C)C(=O)NCC(=O)N[C@@H](C)C(=O)N[C@@H](CCSC)C(=O)N[C@@H](CCCNC(=N)N)C(=O)N[C@@H](CCCCN)C(=O)N2)NC(=O)[C@H](CSSC[C@@H](C(=O)N[C@@H](CCCCN)C(=O)N[C@@H](Cc2ccc(O)cc2)C(=O)N[C@@H](C)C(=O)N[C@@H](Cc2ccccc2)C(N)=O)NC(=O)[C@H](Cc2c[nH]c4ccccc24)NC(=O)[C@H](CCCCN)NC(=O)[C@H](Cc2c[nH]cn2)NC(=O)[C@H]([C@@H](C)O)NC(=O)[C@H](CCCNC(=N)N)NC(=O)[C@H](CO)NC3=O)NC(=O)[C@H](CCCCN)NC(=O)[C@H](CC(=O)O)NC(=O)[C@H](CC(N)=O)NC(=O)[C@H](CC(=O)O)NC(=O)[C@@H]2CCCN2C1=O [compound 426] (H-DCLGAMRKCIPDNDKCCRPNLVCSRTHKWCKYAF-NH2; disulfide 2-17, 9-23, 16-30) | 580 | > 5000 | 1580
3 | CC[C@H](C)[C@@H]1NC(=O)[C@@H]2CSSC[C@@H]3NC(=O)[C@H](C(C)C)NC(=O)[C@H](CC(C)C)NC(=O)[C@H](CC(N)=O)NC(=O)[C@@H]4CCCN4C(=O)[C@H](CCCNC(=N)N)NC(=O)[C@H](CSSC[C@H](NC(=O)[C@@H](N)CC(=O)O)C(=O)N[C@@H](CC(C)C)C(=O)NCC(=O)N[C@@H](C)C(=O)N[C@@H](CCSC)C(=O)N[C@@H](CCCNC(=N)N)C(=O)N[C@@H](CCCCN)C(=O)N2)NC(=O)[C@H](CSSC[C@@H](C(=O)N[C@@H](CCCCN)C(=O)N[C@@H](Cc2ccc(O)cc2)C(=O)N[C@H](C(=O)N[C@@H](Cc2ccccc2)C(N)=O)C(C)C)NC(=O)[C@H](Cc2c[nH]c4ccccc24)NC(=O)[C@H](CCCCN)NC(=O)[C@H](Cc2c[nH]cn2)NC(=O)[C@H]([C@@H](C)O)NC(=O)[C@H](CCCNC(=N)N)NC(=O)[C@H](CO)NC3=O)NC(=O)[C@H](CCCCN)NC(=O)[C@H](CC(=O)O)NC(=O)[C@H](Cc2cccc3ccccc23)NC(=O)[C@H](CC(=O)O)NC(=O)[C@@H]2CCCN2C1=O [compound 427] (H-DCLGAMRKCIPD[1Nal]DKCCRPNLVCSRTHKWCKYVF-NH2; disulfide 2-17, 9-23, 16-30) | 650 | > 5000 | 1180
